Biological target: T1, FUS-GFP condensates (Homo sapiens, UniProt P35637)
T1 sequence (P35637 1-526): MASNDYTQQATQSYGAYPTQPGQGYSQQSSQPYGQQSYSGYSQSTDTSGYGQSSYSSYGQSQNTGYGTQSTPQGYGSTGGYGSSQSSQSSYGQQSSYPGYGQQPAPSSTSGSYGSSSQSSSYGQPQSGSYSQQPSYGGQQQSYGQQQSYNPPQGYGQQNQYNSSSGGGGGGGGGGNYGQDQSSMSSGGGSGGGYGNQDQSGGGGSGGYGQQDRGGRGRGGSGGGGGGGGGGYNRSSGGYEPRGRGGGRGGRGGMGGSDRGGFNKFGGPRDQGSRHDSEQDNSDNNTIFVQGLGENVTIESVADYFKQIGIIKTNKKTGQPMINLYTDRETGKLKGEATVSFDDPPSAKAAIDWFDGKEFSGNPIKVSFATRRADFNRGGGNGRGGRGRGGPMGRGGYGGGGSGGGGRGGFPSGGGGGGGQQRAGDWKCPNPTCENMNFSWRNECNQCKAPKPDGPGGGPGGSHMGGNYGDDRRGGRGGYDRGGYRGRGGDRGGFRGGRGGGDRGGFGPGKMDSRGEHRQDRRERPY
Test: Co-localization of dye and FUS in FUS-GFP condensates (confocal imaging)
Type: physicochemical
Details: FIG. 6; FUS-GFP channel and Rhodamine 800 channel
Procedure: FUS-GFP condensates were prepared as described for FUS-SNAP in Example 2 using Dye 18.
A spinning disk confocal microscope was used to acquire images of the samples. A 60×oil high-NA objective lens was used to capture the condensate droplets. The laser power was set to 20% and the exposure times were adjusted to the fluorescence emission intensity specific for each dye. Exposure times ranged from 1-1000 ms. Appropriate filter settings were used, matching the excitation and emission spectra of the dye and GFP. Control images were taken of condensates containing FUS-GFP with no dye.

Co-localization of dye with GFP-labeled FUS in condensates: co-localized in the condensates
SMILES: N#CC1=c2cc3c4c(c2Oc2c1cc1c5c2CCCN5CCC1)CCC[N+]=4CCC3 [Dye 18, Rhodamine 800]

Source: patent US12174198B2, “Methods of characterizing condensate-associated characteristics of compounds and uses thereof” (Dewpoint Therapeutics, Inc., priority 2019, dated 2024)
